The first experiment deals with Rattus norvegicus. The experiment is described as follows: Effective dose for Anti-inflammatory activity was determined by carrageenan induced rat hind paw edema model. The format is functional.
In the case of `CC(C(=O)O)c1ccc(-c2ccsc2)cc1` (configuration not stated) [ATLIPROFEN], the ED50 – broadly, the dose that gives a 50% effect, or the effect in half of the subjects – was 5.74 mg/kg.

`CC(C)Cc1ccc([C@H](C)C(=O)O)cc1` [DEXIBUPROFEN]: the ED50 worked out at 7.08 mg/kg.

On to `COc1ccc2cc([C@H](C)C(=O)O)ccc2c1` [NAPROXEN], for which the 50% effect level (ED50) was put at a dose of 0.99 mg/kg.

Regarding `C[C@H](C(=O)O)c1ccc(-c2ccsc2)cc1`, the ED50 came out at 1.85 mg/kg.

As to `COc1ccc2cc(C(C)C(=O)O)ccc2c1` (configuration not stated), it took a dose of 2.35 mg/kg to reach the 50% effect level (ED50).

Regarding `CC(C)Cc1ccc(C(C)C(=O)O)cc1` (configuration not stated) [IBUPROFEN], the ED50 amounted to 33.2 mg/kg.

The next experiment deals with T1, Prostaglandin G/H synthase 1 (Ovis aries, UniProt P05979).
T1 sequence (P05979 whole entry): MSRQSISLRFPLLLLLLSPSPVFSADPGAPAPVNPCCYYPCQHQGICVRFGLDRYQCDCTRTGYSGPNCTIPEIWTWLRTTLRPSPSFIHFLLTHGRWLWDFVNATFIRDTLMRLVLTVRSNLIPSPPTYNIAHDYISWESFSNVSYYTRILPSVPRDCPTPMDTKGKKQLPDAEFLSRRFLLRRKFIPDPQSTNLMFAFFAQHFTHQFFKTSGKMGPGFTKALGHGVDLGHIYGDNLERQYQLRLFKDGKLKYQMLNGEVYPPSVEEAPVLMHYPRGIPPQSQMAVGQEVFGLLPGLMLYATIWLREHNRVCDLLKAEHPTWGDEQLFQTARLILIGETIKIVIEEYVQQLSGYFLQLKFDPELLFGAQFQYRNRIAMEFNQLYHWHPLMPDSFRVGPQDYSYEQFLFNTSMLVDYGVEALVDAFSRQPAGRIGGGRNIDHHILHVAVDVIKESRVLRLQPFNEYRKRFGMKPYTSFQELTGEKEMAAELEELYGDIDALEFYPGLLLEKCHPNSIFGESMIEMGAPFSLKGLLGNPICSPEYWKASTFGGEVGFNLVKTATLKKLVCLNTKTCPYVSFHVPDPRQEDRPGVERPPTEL
Kind of experiment: In vitro inhibitory concentration against ram seminal vesicle prostaglandin G/H synthase 1. The format is tissue-based.
On to `C[C@H](C(=O)O)c1ccc(-c2ccsc2)cc1`, for which inhibition was half-maximal at 45.2 µM (IC50).
